Numbered stars: 1 amine (or outer) side, 2 acyl side, 3 side chain; on linkers, the order of the positions; unused ones are H or OH. Bridge positions count the residues as written; N and C are the ends. Square brackets hold non-standard residues; d marks the D form. Peptide text beside a SMILES is read from it. I, II: the chains in the order shown. X1 = O=C(CCOCCOCCOCCOCCOCCOCCOCCOCCOCCOCCOCCOCCOCCOCCOCCOCCOCCOCCOCCOCCOCCOCCOCCOCCOCCOCCC(=O)[*:2])[*:1]; 2Nal = N[C@@H](Cc1ccc2ccccc2c1)C(=O)O; Diglycolyl = O=C(COCC(=O)[*:2])[*:1]; NMeR = CN[C@@H](CCCNC(=N)N)C(=O)O; Pen = CC(C)(S)[C@H](N)C(=O)O

One series deals with α4β7 integrin (Homo sapiens, UniProt P13612+P26010, DEL724-798). Put plainly: Surface plasmon resonance (SPR), binding of soluble α4β7 integrin to immobilized biotin-labeled ligand. An excerpt: Surface plasmon resonance (SPR) was used to further evaluate the binding properties of Peptide X. An analog of Peptide X (Peptide X-biotin), which contains a biotin group attached to Peptide X via a PEG linker, was synthesized. Another peptide dimer having the following structure, which is closely related to Peptide X, was also synthesized and biotin-labeled:
• (Peptide Z). Vedolizumab was also chemically biotinylated. Peptide X-biotin, Peptide Z-biotin, or biotin-labeled vedolizumab antibody was immobilized to a streptavidin coated SPR chip, and the binding of soluble α4β7 integrin was measured. […] This half-life is quite long, and may be caused by a tight association between the peptide and the bound Mn^2+ metal ion on the integrin. […] In addition, the KD for Peptide X-biotin was substantially lower than that for Peptide Z-biotin.
For orientation: SPR reads the build-up and loss of mass on a sensor chip optically.

A short description of series [1]: Simulated Intestinal Fluid (SIF) Stability Assay. It counts as in vitro ADME, porcine. Particulars: pig, simulated intestinal fluid (SIF) with 1% porcine pancreatin, pH 6.5, Table 4-C, t1/2; > means assay stopped at that time; read-out: SIF (porcine) Min. In outline: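 Intestinal stability: percent peptide remaining over time, by LC-MS/MS peak-area ratio to internal standard, fitted to first-order decay for half-life. Conditions: 22 μM peptide, 1% pancreatin in pH 6.5 blank FASSIF, 37 °C.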

The target in the next series is T1, rh integrin α4β7 (Homo sapiens, UniProt P13612+P26010).
T1 construct: purchased R&D Systems 5397-A30
Kind of series: α4β7-MAdCAM Competition ELISA. Particulars: Table 4-B; read-out: ELISA α4β7 IC50. It counts as binding. The method in brief: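 Competition read-out was A450 after anti-human IgG1-HRP and TMB detection of bound recombinant human MAdCAM-1 (10 nM final). Peptides were serially diluted 3-fold from a final 10 μM and equilibrated 1 h at room temperature on nickel-captured α4β7 (800 ng/well). The buffer was Tris pH 7.6 with 1 mM Mn2+ or Mg2+.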

Series [2] in a line: Dithiothreitol (DTT) Redox Stability Assay. The following applies: Table 4-C, t1/2, 0.5 mM DTT. It counts as physicochemical. The procedure:
For each peptide tested, the DTT stability assay was conducted by adding 5 μl of a 10 mM peptide stock solution in DMSO to 1 ml of 100 mM Tris-Cl, pH 7.5 (final peptide concentration is 50 μM). At time 0 min, 5 ul of a freshly thawed 100 mM DTT solution was added to the incubation tube containing the peptide, such that the final DTT concentration was 0.5 mM. The reactions were incubated at room temperature. At different time points up to 120 minutes (20 min, 40 min, 80 min, 120 min), 50 ul aliquots were removed, and the reaction was quenched by adding 10 μl of 5M acetic acid. To measure disappearance of the parent peptide, the quenched samples (30 μl) were analyzed by reverse phase HPLC and UV absorbance at 220 nm. The fraction oxidized remaining was graphed versus time, and half-lives were calculated by fitting to a first-order exponential decay equation using Excel.

Another series is described as follows: Plasma Stability Assay. Type of series: in vitro ADME. Particulars: rat, Table 4-C, t1/2. On the procedure: 0.5 mL of rat plasma (one tube per peptide, volume depends on how many time points are to be collected, 50 μL per time point) was added to each well of a 96-well polypropylene plate, and the tubes were incubated in a heated water bath, preset to 37° C. with gentle shaking. 1 μL of 10 mM peptide stock solution was added to each tub, and then 200 μL of Acetonitrile w/0.1% Formic Acid was added to each tube (1:4). Samples were collected at the following time points: 0, 10, 30, 45, 60, 120, 180 mins. When all time points were collected, the plate was centrifuged at 5000 rpm for 5 mins. LCM analysis was performed by pipetting 100 μL of each sample to appropriate well of a 96-well deep plate. 100 μL of an internal standard peptide (1 ug/mL) was added in Mobile Phase A to each well. The plate was vortexed and injected

Series [3] is described as follows: Simulated Gastric Fluid (SGF) Assay. It counts as in vitro ADME. Particulars: pig, simulated gastric fluid (SGF) with porcine pepsin, pH 2; Table 4-C, t1/2. The procedure:
SGF was prepared by adding 20 mg NaCl, 32 mg porcine pepsin (MP Biochemicals, catalog 02102599), and 70 μl HCl to 10 ml water (final pH=2). Aliquots of SGF (0.5 ml each) were pre-warmed at 37° C. For each peptide tested, to start the reaction, 1 μl of peptide stock solution (10 mM in DMSO) was added to 0.5 ml SGF and thoroughly mixed such that the final peptide concentration was 20 μM. The reactions were incubated at 37° C. with gentle shaking. At each time point (0, 15, 30, 60 min), 50 μl aliquots were removed and added to 200 ul acetonitrile containing 0.1% formic acid to quench the reaction. Samples were stored at 4° C. until the end of the experiment and centrifuged at 10,000 rpm for 5 minutes. Aliquots of the supernatant were removed, diluted 1:1 into distilled water containing internal standard, and analyzed by LCMS/MS. Percent remaining at each timepoint was calculated based on the peak area response ratio of test compound to internal standard. Time 0 was set to 100%, and all later timepoints were calculated relative to time 0. Half-lives were calculated by fitting to a first-order exponential decay equation using GraphPad.

Series [4] concerns the target α4β1 (Homo sapiens, UniProt P05556+P13612). Put plainly: α4β1-VCAM Cell Adhesion Assay (Jurkat E6.1 human cells). Set-up: host or cells: Jurkat E6.1 human T cells. Particulars: Table 3-B, Selectivity (α4β1); range classes; read-out: α4β1 cell IC50. It counts as cell-based. The procedure: Jurkat E6.1 human cells (Sigma #88042803) were cultured in RPMI 1640 HEPES medium (Invitrogen #22400-089) supplemented with 10% serum (Fetal Bovine Serum, Invitrogen #16140-071), 1 mM sodium pyruvate (Invitrogen #11360-070), 2 mM L-glutamine (Invitrogen #25030-081) and Penicillin-Streptomycin (Invitrogen #15140-122) at 100 units of penicillin and 100 μg of streptomycin per ml. The cells were washed two times in DMEM medium (ATCC #30-2002) supplemented with 0.1% BSA, 10 mM HEPES pH 7 and 1 mM MnCl2. The cells were re-suspended in supplemented DMEM medium at a density of 4×10^6 cells/ml.
A Nunc MaxiSorp plate was coated with rh VCAM-1/CD106 Fc chimera (R&D #862-VC) at 400 ng per well in 50 ul per well in 1×PBS and incubated at 4° C. overnight. The solution was then removed by shaking, blocked with 250 ul per well PBS containing 1% BSA, and incubated at 37° C. for 1 hr. The solution was removed by shaking. Peptides were diluted by serial dilution in a final volume of 50 ul per well (2× concentration). To each well, 50 ul of cells (200,000 cells) were added and the plate was incubated at 37° C., 5% CO2 for 30-45 min to allow cell adhesion. The wells were washed manually three times (100 ul per wash) with supplemented DMEM. After the final wash, 100 ul/well of supplemented DMEM and 10 ul/well of MTT reagent (ATTC cat#30-1010K) were added. The plate was incubated at 37° C., 5% CO2 for 2-3 hrs until a purple precipitate was visible. 100 ul of Detergent Reagent (ATTC cat#30-1010K) was added to each well. The plate was covered from the light, wrapped in Parafilm to prevent evaporation, and left overnight at room temperature in the dark. The plate was shaken for 5 min and the absorbance at 570 nm was measured. To calculate the dose response, the absorbance value of control wells not containing cells was subtracted from each test well.

Series [5] addresses T2, α4β1 (Homo sapiens, UniProt P05556+P13612, DEL729-798).
T2 construct: purchased R&D Systems 5668-A4
Kind of series: α4β1-VCAM Competition ELISA. The following applies: Table 3-B, Selectivity (α4β1); range classes; read-out: α4β1 ELISA IC50. It counts as binding. The method in brief:
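ELISA plates were coated with VCAM-1 Fc at 400 ng/well. Peptide dilutions (highest final 100 μM) and 60 nM α4β1 were incubated 2 h at 37 °C in pH 7.6 Tris buffer containing 1 mM Mn2+ or Mg2+. Integrin retained on the plate was detected by 9F10 antibody, then HRP secondary, with TMB absorbance at 450 nm.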
(In general: In an ELISA, binding on a coated surface is turned into a signal by an enzyme label.)

Chain of α4β7 integrin (P13612 34-977 limits assumed, stated change not applied): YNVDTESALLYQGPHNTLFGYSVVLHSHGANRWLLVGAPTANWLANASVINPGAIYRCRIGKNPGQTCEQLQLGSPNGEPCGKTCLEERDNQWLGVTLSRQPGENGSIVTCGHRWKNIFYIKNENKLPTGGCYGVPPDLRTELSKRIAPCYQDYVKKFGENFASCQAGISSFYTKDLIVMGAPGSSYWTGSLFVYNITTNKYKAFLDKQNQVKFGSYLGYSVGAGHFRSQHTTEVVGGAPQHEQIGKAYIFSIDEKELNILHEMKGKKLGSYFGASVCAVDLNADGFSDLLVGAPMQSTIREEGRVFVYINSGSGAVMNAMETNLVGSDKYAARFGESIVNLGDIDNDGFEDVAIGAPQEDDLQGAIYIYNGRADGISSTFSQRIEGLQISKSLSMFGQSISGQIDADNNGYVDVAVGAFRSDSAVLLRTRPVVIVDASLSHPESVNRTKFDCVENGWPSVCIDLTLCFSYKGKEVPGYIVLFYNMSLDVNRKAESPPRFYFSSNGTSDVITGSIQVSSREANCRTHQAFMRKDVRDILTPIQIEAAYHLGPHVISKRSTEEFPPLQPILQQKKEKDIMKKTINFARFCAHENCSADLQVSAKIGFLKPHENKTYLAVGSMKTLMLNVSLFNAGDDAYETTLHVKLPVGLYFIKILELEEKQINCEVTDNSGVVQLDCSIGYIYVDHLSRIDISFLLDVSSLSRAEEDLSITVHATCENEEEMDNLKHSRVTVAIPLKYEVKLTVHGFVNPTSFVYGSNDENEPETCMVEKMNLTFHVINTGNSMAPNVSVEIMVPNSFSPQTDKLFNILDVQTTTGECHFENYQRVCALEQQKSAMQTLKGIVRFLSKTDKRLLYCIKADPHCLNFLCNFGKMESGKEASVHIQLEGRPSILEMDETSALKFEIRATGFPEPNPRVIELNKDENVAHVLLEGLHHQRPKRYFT
Chain of α4β7 integrin (P26010 20-723 limits assumed, stated change not applied): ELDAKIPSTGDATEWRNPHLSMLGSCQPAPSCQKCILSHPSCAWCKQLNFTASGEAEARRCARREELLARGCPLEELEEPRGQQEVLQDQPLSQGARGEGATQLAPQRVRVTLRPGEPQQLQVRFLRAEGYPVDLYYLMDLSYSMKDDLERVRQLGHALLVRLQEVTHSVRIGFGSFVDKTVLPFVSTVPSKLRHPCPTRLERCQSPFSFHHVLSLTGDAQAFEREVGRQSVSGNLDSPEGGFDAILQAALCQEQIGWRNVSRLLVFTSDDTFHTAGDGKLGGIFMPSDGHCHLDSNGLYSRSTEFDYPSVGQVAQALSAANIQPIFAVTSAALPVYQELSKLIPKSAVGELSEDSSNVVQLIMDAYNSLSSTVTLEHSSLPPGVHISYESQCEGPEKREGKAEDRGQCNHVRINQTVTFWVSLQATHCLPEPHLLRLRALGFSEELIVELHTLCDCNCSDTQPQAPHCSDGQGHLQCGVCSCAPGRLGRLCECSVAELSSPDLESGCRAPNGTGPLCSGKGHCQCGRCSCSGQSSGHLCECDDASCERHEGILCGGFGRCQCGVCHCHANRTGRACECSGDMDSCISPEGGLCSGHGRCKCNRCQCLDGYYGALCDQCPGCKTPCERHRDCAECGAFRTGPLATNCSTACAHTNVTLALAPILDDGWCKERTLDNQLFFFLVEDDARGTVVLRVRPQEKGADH
T1 sequence (P13612 34-977 limits assumed): as the sequence (P13612 34-977 limits assumed, stated change not applied) above
T1 sequence (P26010 20-723 limits assumed): as the sequence (P26010 20-723 limits assumed, stated change not applied) above
T2 sequence (P13612 34-977 limits assumed, stated change not applied): as the sequence (P13612 34-977 limits assumed, stated change not applied) above
T2 sequence (P05556 21-728 limits assumed, stated change not applied): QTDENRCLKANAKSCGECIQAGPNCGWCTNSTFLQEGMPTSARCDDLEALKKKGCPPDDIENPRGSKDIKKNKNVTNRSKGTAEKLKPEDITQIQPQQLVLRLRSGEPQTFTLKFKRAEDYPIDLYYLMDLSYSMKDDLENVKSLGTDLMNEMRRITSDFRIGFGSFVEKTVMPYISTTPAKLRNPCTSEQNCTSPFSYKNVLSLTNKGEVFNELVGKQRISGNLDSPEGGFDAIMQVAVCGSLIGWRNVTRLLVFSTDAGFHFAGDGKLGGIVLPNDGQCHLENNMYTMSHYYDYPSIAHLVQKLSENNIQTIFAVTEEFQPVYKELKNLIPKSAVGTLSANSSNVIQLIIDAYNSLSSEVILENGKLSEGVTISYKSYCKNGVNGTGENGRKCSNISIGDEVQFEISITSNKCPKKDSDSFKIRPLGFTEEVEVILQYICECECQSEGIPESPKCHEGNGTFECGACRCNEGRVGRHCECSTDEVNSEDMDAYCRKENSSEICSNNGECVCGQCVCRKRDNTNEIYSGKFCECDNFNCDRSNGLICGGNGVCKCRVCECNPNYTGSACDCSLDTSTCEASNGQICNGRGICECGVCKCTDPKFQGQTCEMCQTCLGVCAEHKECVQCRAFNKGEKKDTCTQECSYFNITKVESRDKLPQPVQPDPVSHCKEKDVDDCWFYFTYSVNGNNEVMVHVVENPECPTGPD
Chain of α4β1 (Homo sapiens, UniProt P05556+P13612) (P13612 34-1032): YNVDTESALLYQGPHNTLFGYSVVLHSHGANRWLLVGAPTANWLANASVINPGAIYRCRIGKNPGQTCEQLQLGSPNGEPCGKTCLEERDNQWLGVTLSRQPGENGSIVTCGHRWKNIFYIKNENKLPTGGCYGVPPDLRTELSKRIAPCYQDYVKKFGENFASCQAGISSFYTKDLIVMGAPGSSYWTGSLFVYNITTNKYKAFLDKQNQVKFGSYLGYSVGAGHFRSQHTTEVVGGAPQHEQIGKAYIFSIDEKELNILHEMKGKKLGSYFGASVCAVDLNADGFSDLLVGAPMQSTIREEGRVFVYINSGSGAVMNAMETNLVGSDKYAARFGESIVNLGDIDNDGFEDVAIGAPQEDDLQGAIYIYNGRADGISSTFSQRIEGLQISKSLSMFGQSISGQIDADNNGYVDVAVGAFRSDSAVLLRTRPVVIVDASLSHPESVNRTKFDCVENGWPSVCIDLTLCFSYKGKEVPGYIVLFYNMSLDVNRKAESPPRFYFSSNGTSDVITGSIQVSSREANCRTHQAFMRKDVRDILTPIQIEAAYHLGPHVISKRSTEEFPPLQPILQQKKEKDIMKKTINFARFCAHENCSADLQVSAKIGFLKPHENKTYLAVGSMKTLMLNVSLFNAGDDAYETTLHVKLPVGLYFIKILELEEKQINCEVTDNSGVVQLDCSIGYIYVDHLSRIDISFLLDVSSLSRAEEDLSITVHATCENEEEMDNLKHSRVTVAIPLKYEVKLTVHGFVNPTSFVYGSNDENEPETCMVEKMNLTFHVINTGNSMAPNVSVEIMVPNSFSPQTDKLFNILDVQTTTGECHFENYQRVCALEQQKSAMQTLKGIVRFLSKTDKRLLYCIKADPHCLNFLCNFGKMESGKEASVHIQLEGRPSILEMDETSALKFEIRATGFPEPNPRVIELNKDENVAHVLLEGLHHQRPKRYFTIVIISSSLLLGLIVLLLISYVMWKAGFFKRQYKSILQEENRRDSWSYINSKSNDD
Chain of α4β1 (Homo sapiens, UniProt P05556+P13612) (P05556 21-798): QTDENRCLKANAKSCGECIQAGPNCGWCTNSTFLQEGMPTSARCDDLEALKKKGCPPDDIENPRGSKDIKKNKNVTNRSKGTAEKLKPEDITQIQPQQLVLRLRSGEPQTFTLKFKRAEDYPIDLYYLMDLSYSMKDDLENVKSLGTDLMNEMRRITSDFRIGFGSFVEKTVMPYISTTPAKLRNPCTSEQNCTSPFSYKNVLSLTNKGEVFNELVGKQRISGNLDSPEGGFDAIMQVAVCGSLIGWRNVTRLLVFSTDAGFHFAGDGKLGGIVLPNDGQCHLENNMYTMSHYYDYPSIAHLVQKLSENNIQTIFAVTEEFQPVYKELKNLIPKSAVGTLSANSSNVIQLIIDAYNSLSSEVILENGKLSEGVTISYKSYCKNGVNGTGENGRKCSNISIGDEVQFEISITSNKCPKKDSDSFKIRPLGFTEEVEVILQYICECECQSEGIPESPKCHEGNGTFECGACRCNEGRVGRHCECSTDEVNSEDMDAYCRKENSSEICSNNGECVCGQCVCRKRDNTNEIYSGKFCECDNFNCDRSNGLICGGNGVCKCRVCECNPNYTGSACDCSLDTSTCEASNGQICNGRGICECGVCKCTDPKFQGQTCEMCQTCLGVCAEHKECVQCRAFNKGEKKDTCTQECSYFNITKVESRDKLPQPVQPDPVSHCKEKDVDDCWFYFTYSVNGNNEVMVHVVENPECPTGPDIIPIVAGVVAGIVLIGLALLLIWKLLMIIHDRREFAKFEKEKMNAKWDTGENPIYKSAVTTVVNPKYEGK

Take `CC(=O)N[C@@H]1C(=O)N(C)[C@@H](CCCNC(=N)N)C(=O)N[C@@H](CO)C(=O)N[C@@H](CC(=O)O)C(=O)N[C@@H]([C@@H](C)O)C(=O)N[C@@H](CC(C)C)C(=O)N[C@H](C(=O)N[C@@H](Cc2ccc(C(C)(C)C)cc2)C(=O)N[C@@H](CCC(=O)O)CC(=O)N[C@H](CCCCNC(=O)CN(CC(=O)NCCCC[C@@H](NC(=O)C[C@H](CCC(=O)O)NC(=O)[C@H](Cc2ccc(C(C)(C)C)cc2)NC(=O)[C@H]2NC(=O)[C@H](CC(C)C)NC(=O)[C@H]([C@@H](C)O)NC(=O)[C@H](CC(=O)O)NC(=O)[C@H](CO)NC(=O)[C@H](CCCNC(=N)N)N(C)C(=O)[C@@H](NC(C)=O)C(C)(C)SSC2(C)C)C(N)=O)C(=O)CCNC(=O)CCOCCOCCOCCOCCNC(=O)CCCC[C@@H]2SC[C@@H]3NC(=O)N[C@@H]32)C(N)=O)C(C)(C)SSC1(C)C` [Peptide X-biotin]: on α4β7 integrin, the “KD lower than that for biotin-labeled vedolizumab” value stood at 3.8 fold and the “kd” value amounted to 0.0000173 s⁻¹. Also, the kon at α4β7 integrin (read-out: ka) was 1120 M⁻¹ s⁻¹.
Usually IC50 stands for the midpoint of a concentration-inhibition curve. For `CC(=O)N[C@@H]1C(=O)N[C@@H](CCCNC(=N)N)C(=O)N[C@@H](CO)C(=O)N[C@@H](CC(=O)O)C(=O)N[C@@H]([C@@H](C)O)C(=O)N[C@@H](CC(C)C)C(=O)N[C@H](C(=O)N[C@H](CCCCN)C(N)=O)CSSC1(C)C` [compound 206, Ac-Pen-R-S-D-T-L-C-k-NH2] (Ac-[Pen]RSDTLC[dK]-NH2; disulfide 1-7), the half-life at 22 μM in series [1] was 0.433 h. In addition, on rh integrin α4β7, the IC50 was 97 nM. Also, the “DTT Min” value in series [2] came out at 52 min.
For `CC(=O)N[C@H]1CSSC(C)(C)[C@@H](C(=O)N[C@H](CCCCNC(=O)CN(CC(=O)NCCCC[C@@H](NC(=O)[C@H]2NC(=O)[C@H](CC(C)C)NC(=O)[C@H]([C@@H](C)O)NC(=O)[C@H](CC(=O)O)NC(=O)[C@H](CO)NC(=O)[C@H](CCCNC(=N)N)N(C)C(=O)[C@@H](NC(C)=O)CSSC2(C)C)C(N)=O)C(=O)CCN)C(N)=O)NC(=O)[C@H](CC(C)C)NC(=O)[C@H]([C@@H](C)O)NC(=O)[C@H](CC(=O)O)NC(=O)[C@H](CO)NC(=O)[C@H](CCCNC(=N)N)N(C)C1=O` [compound 203, (Ac-C-N-Me-R-S-D-T-L-Pen-k-NH2)2-IDA], in series [1], the half-life at 22 μM is above 4.88 h. Besides, the half-life at 20 μM (in the series “Plasma Stability Assay”; in series [3]) was above 6 h in each case.
For `CC(=O)N[C@H]1CSSC[C@@H](C(=O)N[C@@H](CCCCNC(=O)CCOCCOCCOCCOCCOCCOCCOCCOCCOCCOCCOCCOCCOCCOCCOCCOCCOCCOCCOCCOCCOCCOCCOCCOCCOCCOCCC(=O)NCCCC[C@H](NC(=O)[C@@H]2CSSC[C@H](NC(C)=O)C(=O)N(C)[C@@H](CCCNC(=N)N)C(=O)N[C@@H](CO)C(=O)N[C@@H](CC(=O)O)C(=O)N[C@@H]([C@@H](C)O)C(=O)N[C@@H](CC(C)C)C(=O)N2)C(=O)O)C(=O)O)NC(=O)[C@H](CC(C)C)NC(=O)[C@H]([C@@H](C)O)NC(=O)[C@H](CC(=O)O)NC(=O)[C@H](CO)NC(=O)[C@H](CCCNC(=N)N)N(C)C1=O` [compound 200, (Ac-C-N-Me-R-S-D-T-L-C-K-OH)2-PEG25] (I: Ac-C[NMeR]SDTLCK-OH / II: Ac-C[NMeR]SDTLCK-OH; disulfide I:1-I:7, II:1-II:7 (inferred); linker I:8-II:8 via X1 (inferred)), in series [1], the half-life at 22 μM is 0.133 h. The half-life at 20 μM was 1.47 h in the series “Plasma Stability Assay” and above 6 h in series [3].
With `CC(=O)N[C@@H]1C(=O)N(C)[C@@H](CCCNC(=N)N)C(=O)N[C@@H](CO)C(=O)N[C@@H](CC(=O)O)C(=O)N[C@@H]([C@@H](C)O)C(=O)N[C@@H](CC(C)C)C(=O)N[C@H](C(=O)N[C@@H](Cc2ccc3ccccc3c2)C(=O)N[C@H](CCC(=O)O)C(=O)N[C@H](CCCCNC(=O)COCC(=O)NCCCC[C@@H](NC(=O)[C@@H](CCC(=O)O)NC(=O)[C@H](Cc2ccc3ccccc3c2)NC(=O)[C@H]2NC(=O)[C@H](CC(C)C)NC(=O)[C@H]([C@@H](C)O)NC(=O)[C@H](CC(=O)O)NC(=O)[C@H](CO)NC(=O)[C@H](CCCNC(=N)N)N(C)C(=O)[C@@H](NC(C)=O)C(C)(C)SSC2(C)C)C(N)=O)C(N)=O)C(C)(C)SSC1(C)C` [compound 33] (I: Ac-[Pen][NMeR]SDTL[Pen][2Nal][dE][dK]-NH2 / II: Ac-[Pen][NMeR]SDTL[Pen][2Nal][dE][dK]-NH2; disulfide I:1-I:7, II:1-II:7; linker I:10-II:10 via Diglycolyl), the IC50 on α4β1 [4] was above 100000 nM; at α4β1 [5], 100 to 500 nM.
